Data reported in patent US5620676A, “Biologically active ATP analogs” (priority 1995, dated 1997).
“Also recorded” adds a separate entry of the source. Like-named read-outs stand apart in the source and are kept apart here. Each block holds one compound with its values, some of them ahead of it.

Assays:
[1] = target: T1, P2Y receptor (taenia coli) (Cavia porcellus, UniProt P59902); details: cited from earlier work
T1 construct: Relaxant responses mediated via P2Y receptors were examined in guinea pig taenia coli; from tissue; host or cells: guinea pig taenia coli (carbachol-contracted)

[2] = target: T2, P2Y receptor (turkey erythrocyte membranes) (Meleagris gallopavo, UniProt P49652); test: Stimulation of phospholipase C (inositol phosphate formation) in turkey erythrocyte membranes; assay type: biochemical
T2 construct: from tissue; host or cells: washed turkey erythrocytes, ghosts prepared by hypotonic lysis
Method in brief: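 Erythrocytes were labelled 18-24 h at 37 °C with [3H]myoinositol, and ghosts were made by hypotonic lysis. Ghosts (≈175 μg protein) were incubated 5 min at 30 °C in Hepes buffer pH 7.0 with 1 μM GTPγS and nucleotide analogs. Total [3H]inositol phosphates were purified by anion exchange; K0.5 averaged from 3-8 dose-response curves.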

[3] = target: P2Y receptor (mesenteric artery); test: Relaxation of rabbit mesenteric artery; details: log molar units
[4] = target: T3, adenylyl cyclase linked P2Y receptor (C6 rat glioma cells) (Rattus norvegicus, UniProt Q9EPX4); test: Inhibition of adenylyl cyclase in C6 rat glioma cells; assay type: cell-based
T3 construct: endogenous in cells; host or cells: C6 rat glioma cells
Experimental: This example illustrates the inhibition of adenylyl cyclase activity in C6 rat glioma cells, as a function of the presence of certain ATP analogs in the medium in which the C6 cells were cultured.
Cells were labelled by incubation for 2 hours in the presence of 1 to 2 mCi of tritiated adenine/ml in the medium. Cells were washed twice with HEPES (20 mM, pH 7.5)-buffered Eagle's medium and then preincubated for 10 minutes at 37° C. with fresh medium containing 200 μM 3-isobutyl-1-methylxanthine. Agonist incubations were initiated by the simultaneous addition of 10 μM isoproterenol and various concentrations of nucleotides. The reactions were stopped after 10 minutes of aspiration of the nucleotide-containing medium and addition of 1 ml of ice-cold 5% trichloroacetic acid.

[5] = test system: P2Y receptor (aorta endothelium); test: Relaxation of noradrenalin-contracted rabbit aorta; details: rabbit aorta; log molar units
Experimental: (§1) In FIG. 14, the x-axis is also marked in units of the negative log of the molar concentration of applied putative P2Y receptor agonists and the y-axis is marked in units of the percentage relaxation of the 1 μM noradrenalin-induced contraction of rabbit aorta endothelium. In FIGS. 15-16, the x-axis is marked in units of the negative log of the molar concentration of applied putative p^2X receptor agonists and the y-axis is marked in units of the percentage contraction relative to a standard dose of KCl (i.e., 60 mM), as assessed in guinea pig isolated urinary bladder detrussor muscle (FIG. 15) and guinea pig isolated vas deferens (FIG. 16).

P2U receptors = details: literature; cited from earlier work
nucleotidases = details: Zimmet et al.; Jacobson et al.; cited from earlier work
[6] = target: T1, P2Y receptor (taenia coli); test: Relaxation of carbachol-contracted guinea pig taenia coli
Method in brief: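 Guinea pig taenia coli precontracted with 50 nM carbachol; relaxation to applied P2Y agonists expressed as percentage relaxation against negative log molar agonist concentration.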

P2Y receptors [7] = details: literature; cited from earlier work
P2X and P2Y receptors [8] = test: Overall activity in the seven P2X and P2Y preparations
P2X receptors = test: Overall activity in P2X receptor systems
[9] = target: T4, P2X receptor (urinary bladder) (Cavia porcellus, UniProt A0A286XVA9); test: Contraction of guinea pig isolated urinary bladder detrussor muscle; details: guinea pig urinary bladder
T4 construct: guinea pig isolated urinary bladder detrussor muscle; from tissue; host or cells: guinea pig isolated urinary bladder detrusor muscle

P2Y receptors [10] = test: Overall activity in P2Y receptor systems
Experimental: Phospholipase C activity: Stimulation of inositol phosphate formation by compounds of the present invention was measured in turkey erythrocyte membranes as described by Harden et al., supra and Boyer et al., supra. The K0.5 values were averaged from 3-8 independently determined dose-response curves for each compound. Briefly, one ml of washed turkey erythrocytes was incubated in inositol-free medium (DMEM; Gibco) with 0.5-1 mCi of 2-[^3 H]myoinositol (20 Ci/mmol; American Radiolabeled Chemicals Inc., St. Louis, Mo.)for 18-24 h in a humidified atmosphere of 95% air 5% CO2 at 37° C. Erythrocyte ghosts were prepared by rapid lysis in hypotonic buffer (5 mM sodium phosphate, pH 7.4, 5 mM MgCl2, 1 mM EGTA) as described by Boyer et al., supra. Phospholipase C activity was measured in 25 μl of [^3 H]inositol-labeled ghosts (≈175 μg of protein, 200-500,000 cpm/assay) in a medium containing 424 μM CaC12, 0.91 mM MgSO4, 2 mM EGTA, 115 mM KCl, 5 mM KH2 PO4, and 10 mM Hepes, pH 7.0. Assay (100 μl or 200 μl final volume) contained 1 μM GTPγS and the indicated concentrations of nucleotide analogs. Ghosts were incubated at 30° C. for 5 min, and total [^3 H]inositol phosphates were quantitated after purification by anion exchange chromatography according to Harden et al. (supra) and Boyer et al. (supra).
Muscular relaxation/contraction: Relaxant responses mediated via P2Y receptors were examined in guinea pig taenia coli, rabbit aorta, and rabbit mesenteric artery, as described by Hoyle et al. (Br. J. Pharmacol., 107, 367-374 (1992a)), Burnstock et al., (Br. J. Pharmacol., 90, 383-391 (1987a)), and Rubino et al., (Eur. J. Pharmacol., 212, 237-240 (1992)). Contractile responses mediated via P2X receptors were examined in the guinea pig urinary bladder and vas deferens, and rabbit saphenous artery, also using standard methods (see Hoyle et al., supra., 1992; Hoyle et al., Br. J. Pharmacol., 99, 617-621 (1990); and Burnstock et al., Br. J. Pharmacol., 90, 111-120 (1987b)).

[11] = target: T5, P2X receptor (vas deferens) (Cavia porcellus, UniProt A0A286XVA9); test: Contraction of guinea pig isolated vas deferens
T5 sequence (A0A286XVA9 1-399): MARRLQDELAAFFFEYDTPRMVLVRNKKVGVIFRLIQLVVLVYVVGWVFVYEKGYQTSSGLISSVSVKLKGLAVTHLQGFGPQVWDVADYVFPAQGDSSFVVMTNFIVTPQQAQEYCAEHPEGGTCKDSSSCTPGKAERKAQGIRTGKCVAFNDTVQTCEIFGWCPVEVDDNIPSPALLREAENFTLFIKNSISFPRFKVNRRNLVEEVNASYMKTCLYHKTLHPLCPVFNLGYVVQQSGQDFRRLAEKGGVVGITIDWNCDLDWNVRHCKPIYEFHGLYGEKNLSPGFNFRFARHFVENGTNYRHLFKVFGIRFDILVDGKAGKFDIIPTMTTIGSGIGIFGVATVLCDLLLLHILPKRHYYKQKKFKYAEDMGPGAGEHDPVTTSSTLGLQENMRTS
Experimental: as §1

[12] = target: T6, P2X receptor (saphenous artery) (Oryctolagus cuniculus, UniProt G1U3D6); test: Contraction of rabbit saphenous artery; details: for activity/potency in words, saphenous artery: rabbit saphenous artery
T6 construct: and rabbit saphenous artery; from tissue; host or cells: rabbit saphenous artery
T6 sequence (G1U3D6 1-399): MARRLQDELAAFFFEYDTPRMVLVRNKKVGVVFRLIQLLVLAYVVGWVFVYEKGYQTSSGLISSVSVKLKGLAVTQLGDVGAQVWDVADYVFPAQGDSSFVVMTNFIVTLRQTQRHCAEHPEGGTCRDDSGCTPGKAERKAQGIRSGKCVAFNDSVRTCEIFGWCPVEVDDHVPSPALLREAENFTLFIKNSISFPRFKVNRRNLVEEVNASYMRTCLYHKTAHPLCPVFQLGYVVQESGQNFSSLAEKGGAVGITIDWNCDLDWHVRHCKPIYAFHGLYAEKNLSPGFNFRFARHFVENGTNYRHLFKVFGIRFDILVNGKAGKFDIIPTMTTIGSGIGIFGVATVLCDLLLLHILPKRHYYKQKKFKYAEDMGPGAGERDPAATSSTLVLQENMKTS
Method in brief: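 Contraction of isolated rabbit saphenous artery, standard organ-bath methods; responses at 10 μM expressed as percentage of contraction produced by 1 μM α,MeATP. Highest analogue concentrations tested were 3-30 […].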

P2X and P2Y receptors [13] = details: Satchell and Maguire; cited from earlier work
[14] = target: T5, P2X receptor (vas deferens); details: guinea pig vas deferens; log molar units; footnote e: literature data; cited from earlier work
[15] = turkey erythrocyte membranes, mean ± S.E.M. for at least 2 determinations, read-out: phosphatidyl inositol metabolism (K0.5, nM) erythrocyte
[16] = turkey erythrocyte membranes, read-out: K0.5
[17] = listed as 3'-Benzylamino-3'-deoxy-ATP
[18] = listed as 3'-benzylamino-3'-deoxy-ATP
[19] = listed as 3'-benzylamino-3'-deoxyATP

T2 sequence (P49652 whole entry): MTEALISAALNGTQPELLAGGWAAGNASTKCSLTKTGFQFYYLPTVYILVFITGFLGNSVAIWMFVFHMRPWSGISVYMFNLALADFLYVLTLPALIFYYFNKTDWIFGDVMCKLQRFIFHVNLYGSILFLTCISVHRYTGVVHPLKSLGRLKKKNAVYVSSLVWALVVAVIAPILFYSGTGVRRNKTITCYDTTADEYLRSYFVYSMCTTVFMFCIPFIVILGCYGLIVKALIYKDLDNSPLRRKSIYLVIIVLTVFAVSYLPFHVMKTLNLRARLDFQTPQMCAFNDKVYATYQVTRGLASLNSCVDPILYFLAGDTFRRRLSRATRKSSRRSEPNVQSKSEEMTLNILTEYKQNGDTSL
T1 sequence (P59902 whole entry): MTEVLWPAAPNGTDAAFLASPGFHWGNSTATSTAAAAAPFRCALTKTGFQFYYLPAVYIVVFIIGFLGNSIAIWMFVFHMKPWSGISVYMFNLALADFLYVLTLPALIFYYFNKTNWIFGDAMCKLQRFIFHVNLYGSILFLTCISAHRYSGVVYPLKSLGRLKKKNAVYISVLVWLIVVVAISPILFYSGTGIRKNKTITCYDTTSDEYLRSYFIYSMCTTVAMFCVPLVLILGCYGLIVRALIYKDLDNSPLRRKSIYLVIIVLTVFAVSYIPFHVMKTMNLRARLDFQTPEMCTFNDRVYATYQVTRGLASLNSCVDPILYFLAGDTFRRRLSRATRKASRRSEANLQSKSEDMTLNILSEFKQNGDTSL
T3 sequence (Q9EPX4 whole entry): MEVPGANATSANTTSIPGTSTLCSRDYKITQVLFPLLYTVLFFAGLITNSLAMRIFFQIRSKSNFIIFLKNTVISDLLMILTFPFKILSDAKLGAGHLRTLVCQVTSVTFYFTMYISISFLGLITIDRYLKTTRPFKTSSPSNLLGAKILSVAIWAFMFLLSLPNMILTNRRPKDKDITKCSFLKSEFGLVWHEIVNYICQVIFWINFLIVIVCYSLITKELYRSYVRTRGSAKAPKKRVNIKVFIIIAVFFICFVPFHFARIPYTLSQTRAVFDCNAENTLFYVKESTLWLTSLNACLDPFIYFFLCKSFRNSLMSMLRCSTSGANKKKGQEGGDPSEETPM

Structure (SMILES): Nc1nc(Cl)nc2c1ncn2[C@@H]1O[C@H](COP(=O)(O)OP(=O)(O)OP(=O)(O)O)[C@@H](O)[C@H]1O [2-Cl-ATP, 2-chloro-ATP, reference compound]
relaxation pD2, taenia coli ([1]; guinea pig taenia coli, log molar units, footnote e: literature data): 7.2 | EC50 [2, 15]: 72 ± 19 nM | EC50 [2, 16]: 72 nM | relaxation pD2, mes. artery [3]: 6.2 | selectivity for the adenylyl cyclase linked receptor, in words ([4]; versus phospholipase C linked receptor): not observed | relaxation pD2, aorta [5]: 5.8

Structure (SMILES): CSc1nc(N)c2ncn([C@@H]3O[C@H](COP(=O)(O)OP(=O)(O)OP(=O)(O)O)[C@@H](O)[C@H]3O)c2n1 [2-MeS-ATP, 2-methylthio-ATP]
pD2, taenia coli, as reported by Hoyle et al. ([1]; guinea pig taenia coli): 8.0±0.15 | potency at P2U receptors, in words (P2U receptors): much less potent than ATP at P2U -receptors | EC50 [2, 15]: 8 ± 2 nM | EC50 [2, 16]: 8 nM | relaxation pD2, mes. artery [3]: 6.5 | stability to nucleotidases, in words (nucleotidases): susceptible to ectonucleotidases | selectivity for the adenylyl cyclase linked (C6 cell) receptor ([4]; versus phospholipase C linked turkey erythrocyte receptor): 7.3 -fold | EC50 [6]: 0.01 µM | P2Y receptor affinity/potency, in words (P2Y receptors [7]): high affinity for P2Y receptors; also recorded: One of the most potent known P2Y receptor agonists | relaxation pD2, aorta [5]: 6.8

overall activity in words, P2X systems (P2X receptors): specificity for P2X receptors | activity/potency in words, bladder [9, 17]: substantially more potent than ATP | activity/potency in words, bladder [9, 19]: high potency | overall activity in words, P2Y systems (P2Y receptors [10]; listed as 3'-benzylamino-3'deoxyATP): inactive in the P2Y receptor systems | activity/potency in words, vas deferens [11, 17]: substantially more potent than ATP | activity/potency in words, vas deferens [11, 19]: high potency | activity/potency in words, saphenous artery [12]: inactive | EC50 [2, 15]: > 100000 nM
Structure (SMILES): Nc1ncnc2c1ncn2[C@@H]1O[C@H](COP(=O)(O)OP(=O)(O)OP(=O)(O)O)[C@@H](NCc2ccccc2)[C@H]1O [3'-Benzylamino-3'-deoxyATP, 3'-N-Benzylamino-3'-deoxyadenosine 5'-triphosphate]
overall activity in words, all preparations (P2X and P2Y receptors [8]): active only in the vas deferens and urinary bladder | activity/potency in words, bladder [9]: highly potent at urinary bladder P2X receptors | activity/potency in words, bladder [9, 18]: potent agonists in the vas deferens and urinary bladder | overall activity in words, P2Y systems (P2Y receptors [10]): either inactive or only a weak agonist in P2Y -systems | activity/potency in words, vas deferens [11]: the most potent agonist at vas deferens P2X receptors | activity/potency in words, vas deferens [11, 18]: potent agonists in the vas deferens and urinary bladder | activity/potency in words, saphenous artery [12, 18]: at best weak agonists in the saphenous artery | activity/potency in words, saphenous artery [12, 19]: not rabbit saphenous artery P2X receptors

activity/potency in words, bladder [9]: limited activity in the urinary bladder | activity/potency in words, vas deferens [11]: inactive in the vas deferens | EC50 [2, 15]: 47400 nM
Structure (SMILES): Nc1ncnc2c1nc(Br)n2[C@@H]1O[C@H](COP(=O)(O)OP(=O)(O)OP(=O)(O)O)[C@@H](O)[C@H]1O [8-Br-ATP, 8-Bromoadenosine 5'-triphosphate]
overall activity in words, all preparations (P2X and P2Y receptors [8]): relatively ineffective at the receptors tested in this study | activity at P2 receptors, in words (P2X and P2Y receptors [13]): somewhat active at P2 receptors

Structure (SMILES): Nc1ncnc2c1ncn2[C@@H]1O[C@H](COP(=O)(O)OP(=O)(O)OP(=O)(O)O)[C@@H](O)[C@H]1O [ATP, adenosine-5'-triphosphate, reference compound]
contraction pD2, vas [14]: 3.5 | EC50 [12]: 1780 µM | activation at 10 µM ([12]; read-out: response at 10 μM relative to the contraction produced by 1 μM α,MeATP, saph. artery): 5% | EC50 ([2]; K0.5, turkey erythrocyte membranes, read from graph): 10000 nM | EC50 [2, 15]: 2800 ± 700 nM | relaxation pD2, mes. artery [3]: 6.0 | EC50 [6]: 0.631 µM | relaxation pD2, taenia coli ([6]; guinea pig taenia coli, log molar units): 6.2 ± 0.08 | relaxation pD2, aorta [5]: 4.5

Structure (SMILES): Nc1ncnc2c1ncn2[C@@H]1O[C@H](COP(O)(=S)OP(=O)(O)OP(=O)(O)O)[C@@H](O)[C@H]1O (stereo partly drawn) [ATP-α-S (S-isomer), reference compound]
fold more potent than ATP, taenia coli ([1]; relative to ATP, see Burnstock et al. 1984): approximately 10 -fold | EC50 ([2]; phosphatidyl inositol metabolism (K0.5, nM) erythrocyte, turkey erythrocyte membranes, mean ± S.E.M. for at least 2 determinations): 8930 ± 4440 nM | fold less potent than ATP, turkey erythrocyte ([2]; relative to ATP): 2 -fold | relaxation pD2, mes. artery [3]: 6.6
